From patent US6329392A, “Substituted piperidines useful for the treatment of allergic diseases” (Aventis Pharmaceuticals, Inc., priority 1998, dated 2001) come the findings set out here.

Read-outs that look alike come from different tables or passages of the source.

In assay [1] the target is T1, H1 receptor (Cavia porcellus, UniProt P31389).
T1 construct: A piece of ileum, about 20 cm in length, is removed and cut into 2 cm pieces; from tissue; host or cells: ileum of male Hartley guinea pigs
T1 sequence (P31389 whole entry): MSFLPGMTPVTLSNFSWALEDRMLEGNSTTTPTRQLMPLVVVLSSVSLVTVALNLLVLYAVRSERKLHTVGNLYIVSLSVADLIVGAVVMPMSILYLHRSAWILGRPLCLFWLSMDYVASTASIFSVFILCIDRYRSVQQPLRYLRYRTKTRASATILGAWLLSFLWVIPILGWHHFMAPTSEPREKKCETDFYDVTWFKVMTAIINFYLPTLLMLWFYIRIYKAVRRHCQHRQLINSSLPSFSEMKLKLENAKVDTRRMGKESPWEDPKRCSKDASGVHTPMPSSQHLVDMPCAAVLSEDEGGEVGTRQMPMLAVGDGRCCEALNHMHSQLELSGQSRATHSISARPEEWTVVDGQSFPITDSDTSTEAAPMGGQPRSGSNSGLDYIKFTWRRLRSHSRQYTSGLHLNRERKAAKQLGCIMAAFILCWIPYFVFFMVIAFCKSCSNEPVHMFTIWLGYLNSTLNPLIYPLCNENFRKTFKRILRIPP
In words: Histamine (H1) antagonism in guinea pig ileum. It counts as cell-based. On the procedure: Male Hartley guinea pigs, weighing 200-450 grams, are sacrificed by CO2 asphyxiation. A piece of ileum, about 20 cm in length, is removed and cut into 2 cm pieces. Each ileum piece is placed in an organ bath at 37° C. containing Tyrode's solution and is constantly aerated with 95% O2 /5%CO2. Tyrode's solution has the composition: NaCl 136.9 mM, KCl […], CaCl2 1.8 mM, NaH2 PO4 0.42 mM, NaHCO3 11.9 mM, and dextrose 5.55 mM. Contractions are measured with an isometric transducer (Grass FTO3C), and are recorded on a polygraph recorder and/or a computer. The ileum strips are loaded with 1.0 grams of tension and allowed to equilibrate for a minimum of 30 minutes before starting the experiments.
The potency of the antagonism is determined by the magnitude of the shift and is expressed as a pA2 value which is the negative logarithm of the molar concentration of antagonist which produces a two-fold shift of the dose response curve to the right. The pA2 value is calculated by using Schild analysis. O. Arunlakshana and H. O. Schild, Br. J. Pharmacol Chemother. 14, 48-58 (1958).
Table 1 presents pA2 values by the method of Example 93 which indicate potency of H1 receptor antagonism and IC50 values by the method of Example 95 which indicates NK1 receptor binding affinity for representative compounds of the present invention.

Assay [2] addresses T2, NK1 receptor (Cavia porcellus, UniProt P30547).
T2 construct: as evaluated in guinea pig lungs (Keystone Biologicals, Cleveland, Ohio); tissue Keystone Biologicals, Cleveland, Ohio; host or cells: guinea pig lung membranes
In words: Antagonism of iodinated tachykinin (substance P) binding to NK1 receptors in guinea pig lungs. The conditions noted are these: read-out: NK1 Receptor Binding Affinity, IC50. On the procedure: Antagonism of iodinated tachykinin binding to NK1 receptors by putative antagonists
One skilled in the art can measure the NK1 receptor affinity of proposed tachykinin antagonists as evaluated in guinea pig lungs (Keystone Biologicals, Cleveland, Ohio). Tissues or cells are homogenized with a Polytron in 15 volumes of 50 mM Tris-HCl buffer (pH 7.4, […]) and centrifuged. The pellet is resuspended in Tris-HCl buffer and centrifuged; the pellet is washed twice by resuspension. The final pellet is resuspended at a concentration of 40 mg/ml incubation buffer and remains at room temperature for at least 15 min prior to use. […] Incubations are performed at room temperature for 90 min; binding is terminated by addition of 50 mM Tris-HCl buffer (pH 7.4, […]) and filtration under vacuum through GF/B filters presoaked with 0.1% polyethyleneimine. Filter bound radioactivity is quantitated in a gamma counter. […] IC50 values (concentration required to inhibit 50% of receptor binding) are generated for each of the test compounds by nonlinear regression using an iterative curve fitting program (GraphPAD Inplot, San Diego, Calif.).

[3] abbreviates: read-out: H1 Receptor Antagonism, pA2, in vitro (converted).
Setting [4] is: guinea pig lungs, 0.1 nM 125I-Bolton Hunter Lys-3 labeled substance P, room temperature 90 min, pH 7.4.

T2 sequence (P30547 whole entry): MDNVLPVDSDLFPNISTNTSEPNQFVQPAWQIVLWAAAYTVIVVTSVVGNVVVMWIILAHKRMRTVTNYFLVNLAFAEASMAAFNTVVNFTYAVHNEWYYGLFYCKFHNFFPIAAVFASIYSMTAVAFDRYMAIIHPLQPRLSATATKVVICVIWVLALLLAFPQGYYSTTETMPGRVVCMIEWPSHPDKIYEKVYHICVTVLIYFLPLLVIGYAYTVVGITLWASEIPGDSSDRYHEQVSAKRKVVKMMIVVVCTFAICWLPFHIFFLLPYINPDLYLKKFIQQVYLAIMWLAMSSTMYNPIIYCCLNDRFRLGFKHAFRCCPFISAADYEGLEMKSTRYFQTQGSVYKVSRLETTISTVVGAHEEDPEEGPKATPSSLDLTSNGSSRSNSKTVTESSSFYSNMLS

Regarding `COc1cc(C(=O)N2CCC(CCN3CCC(C(=O)c4nc5ccccc5n4Cc4ccc(F)cc4)CC3)(c3ccc(Cl)c(Cl)c3)C2)cc(OC)c1OC` (single isomer, unassigned; (+)) [Example 14, (+)-1-(3,4,5-Trimethoxy-benzoyl)-3-[2-[4-[1-(4-fluoro-benzyl)-1 H-benzoimidazole-2-carbonyl]-piperidin-1-yl]-ethyl]-3-(3,4-dichloro-phenyl)-pyrrolidine], in assay [1] (setting [3]), the Kb is 50.1 nM. Further, in assay [2], the 50% inhibitory concentration (IC50) is 29 nM. Turning to `CCOCCn1c(C2(O)CCN(CCC3(c4ccc(Cl)c(Cl)c4)CCN(C(=O)c4cc(OC)c(OC)c(OC)c4)C3)CC2)nc2ccccc21` (single isomer, unassigned; (+)) [Example 81, (+)-1-(3,4,5-Trimethoxy-benzoyl)-3-[2-[4-[1-(2-ethoxy-ethyl)-1H-benzoimidazole]-4-hydroxy-piperidin-1-yl]-ethyl]-3-(3,4-dichloro-phenyl)-pyrrolidine], in assay [1] (setting [3]), the Kb is 525 nM. In addition, the 50% inhibitory concentration (IC50) in assay [2] is 10 nM.

With `COc1ccc(C2(CCN3CCC(C(=O)c4nc5ccccc5n4Cc4ccc(F)cc4)CC3)CCN(C(=O)c3cc(OC)c(OC)c(OC)c3)C2)cc1OC` (stereo not shown) [Example 1, 1-(3,4,5-Trimethoxy-benzoyl)-3-[2-[4-[1-(4-fluoro-benzyl)-1H-benzoimidazole-2-carbonyl]-piperidin-1-yl]-ethyl]-3-(3,4-dimethoxy-phenyl)-pyrrolidine], in assay [1] (setting [3]), the Kb was 31.6 nM. Further, the concentration for half-maximal inhibition (IC50) in assay [2] (setting [4]) amounted to 31 nM. In the case of `COc1ccc(C2(CCN3CCC(C(=O)c4nc5ccccc5n4Cc4ccc(F)cc4)CC3)CCN(C(=O)c3ccccc3)C2)cc1OC` (stereo not shown) [Example 2, 1-Benzoyl-3-[2-[4-[1-(4-fluoro-benzyl)-1 H-benzoimidazole-2-carbonyl]-piperidin-1-yl]-ethyl]-3-(3,4-dimethoxy-phenyl)-pyrrolidine], in assay [1], the Kb was 26.9 nM. In the case of `COc1ccc(C2(CCN3CCC(O)(c4nc5ccccc5n4Cc4ccc(F)cc4)CC3)CCN(C(=O)c3ccccc3)C2)cc1OC` (stereo not shown) [Example 3, 1-Benzoyl-3-[2-[4-[1-(4-fluoro-benzyl)-1 H-benzoimidazol-2-yl]-4-hydroxy-piperidin-1-yl]-ethyl]-3-(3,4-dimethoxy-phenyl)-pyrrolidine], in assay [1], the Kb was 37.2 nM. In addition, the IC50 in assay [2] amounted to 406 nM.

Take `COc1ccc(C2(CCN3CCC(c4nc5ccccc5s4)CC3)CCN(C(=O)c3ccccc3)C2)cc1OC` (stereo not shown) [Example 4, 1-Benzoyl-3-[2-[4-(benzothiazol-2-yl)-piperidin-1-yl]-ethyl]-3-(3,4-dimethoxy-phenyl)-pyrrolidine]: the Kb in assay [1] (setting [3]) is 158 nM. Also, in assay [2], the IC50 came out at 2590 nM. On the same counts, the results for `COc1ccc(C2(CCN3CCC(O)(c4nc5ccccc5n4Cc4ccc(F)cc4)CC3)CCN(C(=O)c3cc(OC)c(OC)c(OC)c3)C2)cc1OC` (stereo not shown) [Example 5, 1-(3,4,5-Trimethoxy-benzoyl)-3-[2-[4-[1-(4-fluoro-benzyl)-1 H-benzoimidazol-2-yl]-4-hydroxy-piperidin-1-yl]-ethyl]-3-(3,4-dimethoxy-phenyl)-pyrrolidine] are 269 nM and 25 nM. On the same counts, the results for `COc1cc(C(=O)N2CCC(CCN3CCC(C(=O)c4nc5ccccc5n4Cc4ccc(F)cc4)CC3)(c3ccc(Cl)c(Cl)c3)C2)cc(OC)c1OC` (stereo not shown) [Example 6, 1-(3,4,5-Trimethoxy-benzoyl)-3-[2-[4-[1-(4-fluoro-benzyl)-1 H-benzoimidazole-2-carbonyl]-piperidin-1-yl]-ethyl]-3-(3,4-dichloro-phenyl)-pyrrolidine] are 141 nM and 85 nM.

Turning to `COc1cc(C(=O)N2CCC(CCN3CCC(O)(c4nc5ccccc5n4Cc4ccc(F)cc4)CC3)(c3ccc(Cl)c(Cl)c3)C2)cc(OC)c1OC` (stereo not shown) [Example 7, 1-(3,4,5-Trimethoxy-benzoyl)-3-[2-[4-[1-(4-fluoro-benzyl)-1 H-benzoimidazol-2-yl]-4-hydroxy-piperidin-1-yl]-ethyl]-3-(3,4-dichloro-phenyl)-pyrrolidine], the Kb in assay [1] is 38.9 nM. In addition, the half-inhibitory concentration (IC50) in assay [2] was found to be 64 nM. `COc1ccc(C2(CCN3CCC(C(O)(c4ccccc4)c4ccccc4)CC3)CCN(C(=O)c3cc(OC)c(OC)c(OC)c3)C2)cc1OC` (stereo not shown) [Example 9, 1-(3,4,5-Trimethoxy-benzoyl)-3-[2-[4-(hydroxy-diphenyl-methyl)-piperidin-1-yl]-ethyl]-3-(3,4-dimethoxy-phenyl)-pyrrolidine]: in assay [1] (setting [3]), the Kb was 724 nM. For the same compound, in assay [2], the IC50 was found to be 122 nM. Turning to `COc1cc(C(=O)N2CCC(CCN3CCC(C(=O)c4nc5ccccc5n4Cc4ccc(F)cc4)CC3)(c3ccc4c(c3)OCO4)C2)cc(OC)c1OC` (stereo not shown) [Example 10, 1-(3,4,5-Trimethoxy-benzoyl)-3-[2-[4-[1-(4-fluoro-benzyl)-1 H-benzoimidazole-2-carbonyl]-piperidin-1-yl]-ethyl]-3-(benzo[1,3]dioxol-5-yl)-pyrrolidine], the Kb in assay [1] (setting [3]) is 60.3 nM. Besides, the half-inhibitory concentration (IC50) in assay [2] (setting [4]) was found to be 146 nM. Turning to `COc1cc(C(=O)N2CCC(CCN3CCC(C(=O)c4nc5ccccc5n4Cc4ccc(F)cc4)CC3)(c3ccccc3)C2)cc(OC)c1OC` (stereo not shown) [Example 11, 1-(3,4,5-Trimethoxy-benzoyl)-3-[2-[4-[1-(4-fluoro-benzyl)-1 H-benzoimidazole-2-carbonyl]-piperidin-1-yl]-ethyl]-3-phenyl-pyrrolidine], in assay [1] (setting [3]), the Kb is 33.9 nM. Take `COc1cc(C(=O)N2CCC(CCN3CCC(C(=O)c4nc5ccccc5n4Cc4ccc(F)cc4)CC3)(c3ccc(C(F)(F)F)cc3)C2)cc(OC)c1OC` (stereo not shown) [Example 20, 1-(3,4,5-Trimethoxy-benzoyl)-3-[2-[4-[1-(4-fluoro-benzyl)-1 H-benzoimidazole-2-carbonyl]-piperidin-1-yl]-ethyl]-3-(4-trifluoromethyl-phenyl)-pyrrolidine]: in assay [1] (setting [3]), the Kb is 129 nM. Besides, the half-inhibitory concentration (IC50) in assay [2] stood at 109 nM.

For `COc1cc(C(=O)N2CCC(CCN3CCC(C(=O)c4nc5ccccc5n4Cc4ccc(F)cc4)CC3)(c3ccc(F)cc3F)C2)cc(OC)c1OC` (stereo not shown) [Example 25, 1-(3,4,5-Trimethoxy-benzoyl)-3-[2-[4-[1-(4-fluoro-benzyl)-1 H-benzoimidazole-2-carbonyl]-piperidin-1-yl]-ethyl]-3-(2,4-difluoro-phenyl)-pyrrolidine], the Kb in assay [1] (setting [3]) is 141 nM. The half-maximal inhibitory concentration (IC50) in assay [2] is 325 nM.

Turning to `CC(C)Oc1cccc(CC(=O)N2CCC(CCN3CCC(C(=O)c4nc5ccccc5n4Cc4ccc(F)cc4)CC3)(c3ccc4c(c3)OCO4)C2)c1` (stereo not shown) [Example 26, 1-(3-Isopropoxy-phenyl-acetyl)-3-[2-[4-[1-(4-fluoro-benzyl)-1 H-benzoimidazole-2-carbonyl]-piperidin-1-yl]-ethyl]-3-(benzo[1,3]dioxol-5-yl)-pyrrolidine], the Kb in assay [1] (setting [3]) is 61.7 nM. Moreover, in assay [2], the half-inhibitory concentration (IC50) came to 288 nM. On the same counts, the results for `COc1ccc(C(=O)N2CCC(CCN3CCC(C(=O)c4nc5ccccc5n4Cc4ccc(F)cc4)CC3)(c3ccc4c(c3)OCO4)C2)c(OC)c1OC` (stereo not shown) [Example 27, 1-(2,3,4-Trimethoxy-benzoyl)-3-[2-[4-[1-(4-fluoro-benzyl)-1 H-benzoimidazole-2-carbonyl]-piperidin-1-yl]-ethyl]-3-(benzo[1,3]dioxol-5-yl)-pyrrolidine] are 20.9 nM and 370 nM. As for `CCOc1cc(C(=O)N2CCC(CCN3CCC(C(=O)c4nc5ccccc5n4Cc4ccc(F)cc4)CC3)(c3ccc(OC)c(OC)c3)C2)cc(OCC)c1OCC` (stereo not shown) [Example 28, 1-(3,4,5-Triethoxy-benzoyl)-3-[2-[4-[1-(4-fluoro-benzyl)-1 H-benzoimidazole-2-carbonyl]-piperidin-1-yl]-ethyl]-3-(3,4-dimethoxy-phenyl)-pyrrolidine], the Kb in assay [1] (setting [3]) is 20.4 nM. Moreover, the half-maximal inhibitory concentration (IC50) in assay [2] (setting [4]) came out at 1240 nM. With `COc1cc(C(=O)N2CCC(CCN3CCC(C(=O)c4nc5ccccc5n4CCN4CCOCC4)CC3)(c3ccc(Cl)c(Cl)c3)C2)cc(OC)c1OC` (stereo not shown) [Example 32, 1-(3,4,5-Trimethoxy-benzoyl)-3-[2-[4-[1-(2-(morpholin-4-yl)-ethyl)-1 H-benzoimidazole-2-carbonyl]-piperidin-1-yl]-ethyl]-3-(3,4-dichlororphenyl)-pyrrolidine], the Kb in assay [1] (setting [3]) was 513 nM. For the same compound, the IC50 in assay [2] stood at 15 nM.

Usually IC50 stands for the concentration that gives 50% inhibition.
